Reference: patent publication US7405230B2, “Phosphodiesterase 4 inhibitors, including N-substituted aniline and diphenylamine analogs” (Memory Pharmaceuticals Corporation, priority 2002, dated 2008)

What was measured:
Rats [1] = assay: Radial arm maze task in rats, an in vivo test for learning and memory (reversal of MK-801 amnesia); parameters: species or system rat (male Spraque-Dawley (Harlan)); settings: MK-801 0.1 mg/kg, i.p., compared to control (p<0.01)
Method: The test was performed as previously described (Zhang, H.-T., Crissman, A. M., Dorairaj, N. R., Chandler, L. J., and O'Donnell, J. M., Neuropsychopharmacology, 2000, 23, 198-204.). Five days after initial housing, rats (male Spraque-Dawley (Harlan) weighing 250 to 350 g) were placed in the eight-arm radial maze (each arm was 60×10×12 cm high; the maze was elevated 70 cm above the floor) for acclimation for two days. Rats were then placed individually in the center of the maze for 5 minutes with food pellets placed close to the food wells, and then, the next day, in the wells at the end of the arms; 2 sessions a day were conducted. Next, four randomly selected arms were then baited with one pellet of food each. The rat was restricted to the center platform (26 cm in diameter) for 15 seconds and then allowed to move freely throughout the maze until it collected all pellets of food or 10 minutes passed, whichever came first. Four parameters were recorded: 1) working memory errors, i.e., entries into baited arms that had already been visited during the same trial; 2) reference memory errors, i.e., entries into unbaited arms; 3) total arm entries; and 4) the test duration (seconds), i.e., the time spent in the collection of all the pellets in the maze. […]
(§1) All data were analyzed by analyses of variance (ANOVA); individual comparisons were made using Kewman-Keuls tests. […]

Rats [2] = assay: Passive avoidance in rats, an in vivo test for learning and memory (reversal of MK-801 amnesia); parameters: species or system rat (Male Spraque-Dawley (Harlan)); settings: MK-801 0.1 mg/kg pretreatment, 24 hours after electric shock, compared to the vehicle (p<0.001)
Method: The test was performed as previously described (Zhang, H.-T., Crissman, A. M., Dorairaj, N. R., Chandler, L. J., and O'Donnell, J. M., Neuropsychopharmacology, 2000, 23, 198-204.). The apparatus (Model E10-16SC, Coulbourn Instruments, Allentown, Pa.) consisted of a two-compartment chamber with an illuminated compartment connected to a darkened compartment by a guillotine door. The floor of the darkened compartment consisted of stainless steel rods through which an electric foot-shock could be delivered from a constant current source. All experimental groups were first habituated to the apparatus the day before the start of the experiment. […] The latency for entering the darkened compartment was recorded. […] Twenty-four hours later, the rat was administered 0.1 mg/kg MK-801 or saline, 30 minutes prior to the injection of saline or test compound (dosed from […], which was 30 minutes before the retention test started. The rat was again placed in the illuminated compartment with the guillotine door open. The latency for entering the darkened compartment was recorded for up to 180 seconds, at which time the trial was terminated.
as §1

With `C[C@]12N[C@H](Cc3ccccc31)c1ccccc12` [MK-801] the “Frequencies of working and reference memory errors” value (Rats [1]) was “increased the frequencies of both working and reference memory errors” and the “Latency for entering the darkened compartment” value (Rats [2]) was “markedly reduced this latency”.
